Measured values reported in patent publication US8624032B2, “Compound libraries made through phosphine-catalyzed annulation/Tebbe/Diels-Alder reactions” (The Regents of the University of California, priority 2011, dated 2014).
Values after ≈ are worked out from the molar mass of the structure shown.

Experiments:
[1] = system: MDA-MB-231 cells; assay: cell invasion assay through Matrigel in transwell chambers; type: cell-based, human; details: subtoxic concentrations, 24 hours
Procedure: Cell migration is a necessary condition for the metastasis of solid tumors. A major determinant of the metastatic potential of a cancer cell is its ability to invade through extracellular matrix barriers. Therefore, compounds 90, 92 and 94 were tested for their activities using a cell invasion assay.
Compounds 90, 92, and 94 were analyzed for their ability to inhibit the invasion of cells through Matrigel in a cell invasion assay. The assay was performed in transwell chambers according to the manufacturer's instructions (BD Biosciences). The polycarbonate membranes (8 μm pore size) of the upper chambers were coated with Matrigel (25 μg). Growth medium containing the tested compound or DMSO alone was added to the lower chambers ([…] per well in 24-well BD Falcon TC companion plates). […] After removing noninvaded cells from the upper surface of the membrane with a cotton swab, the invaded cells on the lower surface were fixed with MeOH, stained with crystal violet solution, rinsed with water, air-dried, and then counted by using an inverted microscope. In parallel experiments, cell viability, determined using the trypan blue dye exclusion assay at various concentrations of the tested compounds, was evaluated under the conditions of the cell invasion assay.

[2] = system: MDA-MB-231 human breast cancer cells; assay: wound closure assay (cell migration); type: cell-based; details: for effect on wound closure or cytotoxicity in the screen: 24 hours after wounding
Procedure: In the wound closure assay, MDA-MB-231 cells (American Type Culture Collection number: HTB-26) were cultured in 75 cm^2 tissue culture flasks with growth medium (DMEM containing 10% fetal bovine serum) at 37° C. under 5% CO2 in a humidified tissue culture incubator. The cells were grown to 80% confluence and then treated with trypsin, collected, and replated in 96-well tissue culture plates for initial screening. Once confluent, the cell cultures were treated with compounds at various concentrations or with DMSO carrier solvent alone with fresh growth medium. In all cases, the final DMSO concentration was 0.05%. After 30 minutes, the cell cultures were wounded with a sterile micropipette tip, and the wound closure experiments were performed essentially as described previously.
Cell monolayers in 24-well tissue culture plates were treated with different concentrations of each compound 30 minutes before wounding and then wounded, as described above.
Digital images of the wounds were captured immediately after wounding and at 3 h, 6 h, 9 h, 12 h, and 24 hours post-wounding. The open wound areas, as a function of time after wounding, were determined with NIH Image J software to establish the mean percent wound closure over time for each treatment and parallel controls, as previously described. The mean percent wound closure values at 9 hours post-wounding for all concentrations up to the maximal subtoxic concentration were subjected to nonlinear regression to calculate IC50 values and 95% confidence intervals for inhibition of wound closure.
The Minimum Inhibitory Concentration (MIC) column of Table 1 represents the lowest concentration tested at which there was statistically significant inhibitory activity in the wound closure assay as determined by unpaired, two-tailed Student's t-tests (P<0.05).
Half-maximal inhibitory concentration (IC50) values shown in Table 1 were calculated for inhibition of wound closure at 9 hours post-wounding from concentration—response profiles for a range of subtoxic concentrations (n=7−9 wounds from three independent experiments).

[3] = system: MDA-MB-231 human breast cancer cells; assay: trypan blue dye exclusion assay at the end of wound closure experiments; type: cell-based; details: lowest concentration tested with statistically significant cell death by the end of wound closure experiments
Procedure: Compounds were first screened at 50 μm and evaluated for their antimigratory activity and cytotoxicity. This was accomplished by scoring wounds as opened or closed as a function of time following wounding to determine the time to closure. Cell viability was determined by the trypan blue dye exclusion assay conducted at the end of each experiment, with the ratio of dye-non-excluding (dead) to dye-excluding (live) cells compared with the control, described in greater detail in Example 7.
Minimum lethal concentration (MLC) represents the lowest concentration tested at which there was statistically significant cell death, measured using the trypan blue dye exclusion assay, by the end of wound closure experiments. The minimum lethal concentration (MLC) for compound 94 under the conditions of the cell invasion assay was 50 μm. In the cell invasion assay, cells were at a lower density than in the wound closure assay, and compounds were added at the same time as the cells, rather than after attachment and growth.

[4] = system: MDA-MB-231 cells; assay: tetrazolium salt-based cell proliferation and viability assay (CCK-8); parameters: species or system human; details: 48 hours
Procedure: Compounds 90, 92 and 94 were also evaluated in a tetrazolium salt-based cell proliferation and viability assay.
The cell proliferation and cell viability assay was conducted according to the manufacturer's instructions (CCK-8; Dojindo Molecular Technologies). MDA-MB-231 cells were plated in 96-well tissue culture plates ([…] per well of a 4×10^4 cells per mL suspension in growth medium) and incubated for 24 hours at 37° C. under 5% CO2. The cells were then treated with the tested compounds at various concentrations or with DMSO alone. In all cases, the final DMSO concentration was 0.05%. At the same time, other cells from parallel plates were analyzed using the CCK-8 assay to establish the cell density at the start of the experiment. After 48 hours of incubation, the cell numbers for the experimental samples were determined and compared with the initial cell numbers.

[5] = system: cell migration; details: natural product comparator; read-out: IC50 (inhibition of cell migration); cited from earlier work

SMILES | activity against cell invasion [1] | effect on wound closure or cytotoxicity in the screen ([2]; 2 μm) | effect on wound closure or cytotoxicity in the screen ([2]; 10 μm) | effect on wound closure or cytotoxicity in the screen ([2]; 50 μm) | IC50 ([2]; Homo sapiens, MDA-MB-231, 9 hours post-wounding, subtoxic concentrations, n=7-9 wounds from three independent experiments, read-out: IC50 (inhibition of wound closure)) [µM] | MIC (minimum inhibitory concentration, wound closure) ([2]; lowest concentration tested with statistically significant inhibitory activity (P<0.05)) [µM] | antimigratory activity in the wound closure assay ([2]; subtoxic concentrations) | MLC (minimum lethal concentration) [3] [µM] | inhibition of cell growth ([4]; concentrations that inhibit migration and invasion) | cytotoxicity ([4]; higher concentrations) | IC50 [5] [µM]
CCOc1cc2c(c3c1C(c1ccccc1)N(S(=O)(=O)c1ccc(C)cc1)C3)C(=O)C=CC2=O (centres unmarked) [Compound 92] | inhibit cell migration and invasion at subtoxic concentrations | inactive | inhibit wound closure or were cytotoxic | inhibit wound closure or were cytotoxic | 14.8 | 5 (≈ 2.37 µg/mL) | exhibited subtoxic antimigratory activity | 50 (≈ 23.7 µg/mL) | did not inhibit cell growth | become cytotoxic at higher concentrations over a very narrow range | –
CO[C@H]1/C=C/CC/C=C/C(=O)O[C@H]([C@H](C)C(=O)CCCC2CC(=O)NC(=O)C2)/C(C)=C\[C@@H](C)[C@@H]1O [migrastatin] | – | – | – | – | – | – | – | – | – | – | 29
